Test results published in article PMC7358525, “Characterization of PF-6142, a Novel, Non-Catecholamine Dopamine Receptor D1 Agonist, in Murine and Nonhuman Primate Models of Dopaminergic Activation” (Frontiers in Pharmacology, 2020).
Structures can show the parent of a compound that is named as a salt.

Tests used:
[1] = tested on: ketamine-induced working memory deficits; assay: Ketamine-disrupted radial arm maze (RAM); assay type: in vivo, rat; conditions: ketamine 10 mg/kg s.c.
Text: Two cohorts of adult male Long-Evans rats (N=30 each) were trained in a spatial working memory task on an eight-arm RAM, (Pathfinder Maze System, Lafayette Instrument Co., Lafayette, IN), using a procedure adapted from [Ward et al. (1990)] and described in detail in [Strick et al. (2011)]. Briefly, rats were food-restricted to provide motivation to perform the RAM task. The task requires that the animals enter each arm to retrieve a reinforcement food pellets, using spatial cues in the room to remember which arms of the maze they have previously entered. Rats were individually placed on the maze and allowed to navigate until all eight arms were entered and the pellets were consumed or until 30 choices were made, or until 5 min had elapsed. Entry into an arm previously entered was counted as an error. […] Training continued until all animals had reached the training criterion, defined as two or fewer errors on two consecutive days. […] Performance on the maze was evaluated 30 min later by an observer that was blinded to treatments.
The R 3.0.1 statistical software was used to compare the error rate data. The effects of treatment and the interaction on the error rate were assessed using a one-way mixed model ANOVA using generalized least squares method from lme4 library. […]

[2] = tested on: ketamine-induced working memory deficits; assay: Spatial delayed response (SDR) task in the nonhuman primate; assay type: in vivo, rhesus monkeys; conditions: ketamine 0.7-1.7 mg/kg i.m.; baseline 70.63 ± 1.75%
Text: This study was designed to test the hypothesis that PF-6142 would provide significant protection versus the ketamine-induced working memory deficits in nonhuman primates.
Rhesus monkeys were trained to stability on a variable SDR task in a sound-attenuated Wisconsin General Testing Apparatus ([Roberts et al., 2010]). Briefly, subjects observe while the investigator baiting one of two to seven wells with a highly preferred food reward and then covers all the wells with identical square plaques. An opaque screen is then lowered for one of five variable delays, which are pseudorandomized across trials within a session. Thus, delays are defined as 0–4 N, where “N” is a value that is animal dependent and ranges from 1 to 10 s depending upon the difficulty level of the task at which an animal reaches the criterion of stable performance. At the end of the delay period, the opaque screen is raised, and the animal must select the well that had been baited to obtain a reward. Each test session consists of 20 trials wherein both the baited well and delay length are pseudorandomized across trials. Before study initiation, all subjects were required to reach stability over a period of 10 consecutive test sessions, where stability was defined as an average of 65–75% correct. Stability was attained by varying the number of wells and the delay value for each animal. Subjects were originally trained on a two-well board with an N value of 1. […] Once stability was attained for a given number of wells and N value, that combination was kept constant throughout the course of the study ([Roberts et al., 2010]). The range of stable performance for the 10 subjects was two to five wells and an N value of 1–7 s (median, four-well testing board, N = 5 s). Data were transformed using logarithmic function [log(x+5)] to improve normality and analyzed using ANOVA.
Subjects received pretreatment with vehicle (sterile saline solution) or PF-6142 (0.0015, 0.015, 0.15 mg/kg, s.c.) 4 h before cognitive testing. They then received an intramuscular injection of either vehicle (sterile saline) or ketamine (0.7–1.7 mg/kg; Fort Dodge Co.) 0.25 h before cognitive testing. […] Thus, for the present study, one monkey received 0.7 mg/kg, seven monkeys received 1.0 mg/kg, and two monkeys received 1.7 mg/kg of ketamine. The vehicle/PF-6142 and vehicle/ketamine treatments were assigned using a randomized Latin square design with a total of eight conditions. Except for the vehicle/vehicle condition, there was a minimum 2-week washout period between all acute challenges during which time animals were required to “restabilize” to baseline performance levels, which was defined as at least three consecutive testing sessions wherein cognitive performance ranged between 65% and 75% correct.

CNC1(c2ccccc2Cl)CCCCC1=O (centres unmarked) [ketamine, ketamine hydrochloride, reference compound]
error rate (errors/choices) in RAM [1]: robust increase in error rate | percent correct on the SDR task [2]: 28.75 ± 2.45%
